From patent publication US20240226228A1, “ANTIMICROBIAL PEPTOID HAVING IMPROVED SELECTIVITY AND ANTIMICROBIAL COMPOSITION COMPRISING SAME” (priority 2021, published 2024)
In brackets after ≈: the same amount, converted by molar mass. Read-outs that look alike come from different tables or passages of the source. Where a SMILES comes first, the peptide text is derived from it. [ ]: non-standard residue; d: D form. Gly(N(CH2)2(3-indolyl)) = O=C(O)CNCCc1c[nH]c2ccccc12; Nspe = C[C@H](NCC(=O)O)c1ccccc1; Nlys = NCCCCNCC(=O)O

Assays:
[1] = test system: red blood cells; experiment: Hemolysis assay; assay type: cell-based, Sprague-Dawley mouse
Method in brief: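 Peptoid is mixed with 10% (v/v) PBS-washed erythrocytes (male Sprague-Dawley […], 13 weeks) and held 1 h at 37 °C. Hemolysis is calculated from 540 nm absorbance of the supernatant, with PBS as 0% and Triton X-100 as 100%.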

[2] = test system: E. coli ATCC25922
Method in brief: (§1)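 Cation-adjusted MHB2 cultures (18 h, subcultured 4 h) adjusted to 2×10^5–5×10^5 CFU/mL in medium with 0.02% BSA and 0.001% acetic acid.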

[3] = test system: S. aureus ATCC 25923
Method in brief: as §1

[4] = Table 18, TFA salt vs counter ion-substituted (HCl, AcOH) peptoids
[5] = Tables 11-13, 24 hours at 37° C., maximum concentration 25 μM

Row | Structure (SMILES) | HC10 [1] | HC50 [1] | Hmax (100 μM) [1] | MIC E. coli ATCC25922 [2, 4] | MIC S. aureus ATCC 25923 [3, 4] | MIC E. coli ATCC25922 [2, 5] | MIC S. aureus ATCC 25923 [3, 5]
1 | C[C@@H](c1ccccc1)N(CC(=O)N(CCCCN)CC(=O)N(CC(=O)N(CC(=O)N(CCCCN)CC(=O)N(CC(=O)N(CC(=O)N(CCCCN)CC(=O)N(CCc1c[nH]c2ccccc12)CC(=O)N(CCc1c[nH]c2ccccc12)CC(N)=O)[C@@H](C)c1ccccc1)[C@@H](C)c1ccccc1)[C@@H](C)c1ccccc1)[C@@H](C)c1ccccc1)C(=O)CN(C(=O)CNCCCCN)[C@@H](C)c1ccccc1 [Peptoid 11-1] (H-[Nlys][Nspe][Nspe][Nlys][Nspe][Nspe][Nlys][Nspe][Nspe][Nlys][Gly(N(CH2)2(3-indolyl))][Gly(N(CH2)2(3-indolyl))]-NH2) | 10.1 µM | 21.5 µM | 113.9 ± 1.7% | 3.1 µM | 3.1 µM |  | 
2 | C[C@@H](c1ccccc1)N(CC(=O)N(CCCCN)CC(=O)N(CC(=O)N(CC(=O)N(CCCCN)CC(=O)N(CC(=O)N(CC(=O)N(CCCCN)CC(=O)N(CCc1c[nH]c2ccccc12)CC(=O)N(CCc1c[nH]c2ccccc12)CC(N)=O)[C@@H](C)c1ccccc1)[C@@H](C)c1ccccc1)[C@@H](C)c1ccccc1)[C@@H](C)c1ccccc1)C(=O)CN(C(=O)CNCCCCN)[C@@H](C)c1ccccc1 [Peptoid 11-2] (H-[Nlys][Nspe][Nspe][Nlys][Nspe][Nspe][Nlys][Nspe][Nspe][Nlys][Gly(N(CH2)2(3-indolyl))][Gly(N(CH2)2(3-indolyl))]-NH2) | 8.7 µM | 29.7 µM | 110.4 ± 0.2% | 3.1 µM | 1.6 µM |  | 
3 | C[C@@H](c1ccccc1)N(CC(N)=O)C(=O)CN(C(=O)CN(CCCCN)C(=O)CN(CCc1c[nH]c2ccccc12)C(=O)CN(CCc1c[nH]c2ccccc12)C(=O)CN(CCCCN)C(=O)CN(C(=O)CN(C(=O)CN(CCCCN)C(=O)CN(C(=O)CN(C(=O)CNCCCCN)[C@@H](C)c1ccccc1)[C@@H](C)c1ccccc1)[C@@H](C)c1ccccc1)[C@@H](C)c1ccccc1)[C@@H](C)c1ccccc1 [Peptoid 12] | 29.1 µM | 65.2 µM | 87.4 ± 2.4% |  |  | 6.3 µM (≈ 12 µg/mL) | 1.6 µM (≈ 3.04 µg/mL)
4 | C[C@@H](c1ccccc1)N(CC(N)=O)C(=O)CN(C(=O)CN(CCCCN)C(=O)CN(C(=O)CN(C(=O)CN(CCCCN)C(=O)CN(CCc1c[nH]c2ccccc12)C(=O)CN(CCc1c[nH]c2ccccc12)C(=O)CN(CCCCN)C(=O)CN(C(=O)CN(C(=O)CNCCCCN)[C@@H](C)c1ccccc1)[C@@H](C)c1ccccc1)[C@@H](C)c1ccccc1)[C@@H](C)c1ccccc1)[C@@H](C)c1ccccc1 [Peptoid 13] | 20.2 µM | 41.3 µM | 96.8 ± 1.6% |  |  | 6.3 µM (≈ 12 µg/mL) | <0.8 µM
5 | C[C@@H](c1ccccc1)N(CC(N)=O)C(=O)CN(C(=O)CN(CCCCN)C(=O)CN(C(=O)CN(C(=O)CN(CCCCN)C(=O)CN(C(=O)CN(C(=O)CN(CCCCN)C(=O)CN(CCc1c[nH]c2ccccc12)C(=O)CN(CCc1c[nH]c2ccccc12)C(=O)CNCCCCN)[C@@H](C)c1ccccc1)[C@@H](C)c1ccccc1)[C@@H](C)c1ccccc1)[C@@H](C)c1ccccc1)[C@@H](C)c1ccccc1 [Peptoid 14-1] | 19.2 µM | 68.2 µM | 75.3 ± 5.0% | 3.1 µM | 3.1 µM |  | 
6 | C[C@@H](c1ccccc1)N(CC(N)=O)C(=O)CN(C(=O)CN(CCCCN)C(=O)CN(C(=O)CN(C(=O)CN(CCCCN)C(=O)CN(C(=O)CN(C(=O)CN(CCCCN)C(=O)CN(CCc1c[nH]c2ccccc12)C(=O)CN(CCc1c[nH]c2ccccc12)C(=O)CNCCCCN)[C@@H](C)c1ccccc1)[C@@H](C)c1ccccc1)[C@@H](C)c1ccccc1)[C@@H](C)c1ccccc1)[C@@H](C)c1ccccc1 [Peptoid 14-2] | 14.9 µM | 51.8 µM | 100.7 ± 17.2% | 3.1 µM | 1.6 µM |  | 
7 | C[C@@H](c1ccccc1)N(CC(N)=O)C(=O)CN(C(=O)CN(CCCCN)C(=O)CN(C(=O)CN(CCc1c[nH]c2ccccc12)C(=O)CN(CCCCN)C(=O)CN(CCc1c[nH]c2ccccc12)C(=O)CN(C(=O)CN(CCCCN)C(=O)CN(C(=O)CN(C(=O)CNCCCCN)[C@@H](C)c1ccccc1)[C@@H](C)c1ccccc1)[C@@H](C)c1ccccc1)[C@@H](C)c1ccccc1)[C@@H](C)c1ccccc1 [Peptoid 15-1] | 50.4 µM | > 100 µM | 33.4 ± 9.7% | 6.3 µM | 3.1 µM |  | 
8 | C[C@@H](c1ccccc1)N(CC(N)=O)C(=O)CN(C(=O)CN(CCCCN)C(=O)CN(C(=O)CN(CCc1c[nH]c2ccccc12)C(=O)CN(CCCCN)C(=O)CN(CCc1c[nH]c2ccccc12)C(=O)CN(C(=O)CN(CCCCN)C(=O)CN(C(=O)CN(C(=O)CNCCCCN)[C@@H](C)c1ccccc1)[C@@H](C)c1ccccc1)[C@@H](C)c1ccccc1)[C@@H](C)c1ccccc1)[C@@H](C)c1ccccc1 [Peptoid 15-2] | 39.2 µM | > 100 µM | 34.1 ± 1.1% | 6.3 µM | 3.1 µM |  | 
9 | C[C@@H](c1ccccc1)N(CC(=O)N(CCc1c[nH]c2ccccc12)CC(=O)N(CCCCN)CC(=O)N(CC(=O)N(CC(=O)N(CCCCN)CC(=O)N(CC(=O)N(CC(=O)N(CCCCN)CC(=O)N(CC(=O)N(CCc1c[nH]c2ccccc12)CC(N)=O)[C@@H](C)c1ccccc1)[C@@H](C)c1ccccc1)[C@@H](C)c1ccccc1)[C@@H](C)c1ccccc1)[C@@H](C)c1ccccc1)C(=O)CNCCCCN [Peptoid 16] (H-[Nlys][Nspe][Gly(N(CH2)2(3-indolyl))][Nlys][Nspe][Nspe][Nlys][Nspe][Nspe][Nlys][Nspe][Gly(N(CH2)2(3-indolyl))]-NH2) | 13.8 µM | 25.0 µM | 100.3 ± 1.7% |  |  | 6.3 µM (≈ 12 µg/mL) | 1.6 µM (≈ 3.04 µg/mL)
10 | C[C@@H](c1ccccc1)N(CC(=O)N(CCCCN)CC(=O)N(CC(=O)N(CC(=O)N(CCCCN)CC(=O)N(CC(=O)N(CC(=O)N(CCCCN)CC(=O)N(CC(=O)N(CCc1c[nH]c2ccccc12)CC(N)=O)[C@@H](C)c1ccccc1)[C@@H](C)c1ccccc1)[C@@H](C)c1ccccc1)[C@@H](C)c1ccccc1)[C@@H](C)c1ccccc1)C(=O)CN(CCc1c[nH]c2ccccc12)C(=O)CNCCCCN [Peptoid 17] (H-[Nlys][Gly(N(CH2)2(3-indolyl))][Nspe][Nlys][Nspe][Nspe][Nlys][Nspe][Nspe][Nlys][Nspe][Gly(N(CH2)2(3-indolyl))]-NH2) | 18.0 µM | 39.7 µM | 87.3 ± 6.7% |  |  | 6.3 µM (≈ 12 µg/mL) | 1.6 µM (≈ 3.04 µg/mL)
11 | C[C@@H](c1ccccc1)N(CC(=O)N(CCCCN)CC(=O)N(CC(=O)N(CC(=O)N(CCCCN)CC(=O)N(CCc1c[nH]c2ccccc12)CC(=O)N(CCc1c[nH]c2ccccc12)CC(N)=O)[C@@H](C)c1ccccc1)[C@@H](C)c1ccccc1)C(=O)CN(C(=O)CN(CCCCN)C(=O)CN(CCc1c[nH]c2ccccc12)C(=O)CN(CCc1c[nH]c2ccccc12)C(=O)CNCCCCN)[C@@H](C)c1ccccc1 [Peptoid 18] (H-[Nlys][Gly(N(CH2)2(3-indolyl))][Gly(N(CH2)2(3-indolyl))][Nlys][Nspe][Nspe][Nlys][Nspe][Nspe][Nlys][Gly(N(CH2)2(3-indolyl))][Gly(N(CH2)2(3-indolyl))]-NH2) | 14.3 µM | 37.8 µM | 103.5 ± 4.3% |  |  | 12.5 µM (≈ 24.7 µg/mL) | 3.1 µM (≈ 6.12 µg/mL)
12 | C[C@@H](c1ccccc1)N(CC(N)=O)C(=O)CN(C(=O)CN(CCCCN)C(=O)CN(CCc1c[nH]c2ccccc12)C(=O)CN(CCc1c[nH]c2ccccc12)C(=O)CN(CCCCN)C(=O)CN(CCc1c[nH]c2ccccc12)C(=O)CN(CCc1c[nH]c2ccccc12)C(=O)CN(CCCCN)C(=O)CN(C(=O)CN(C(=O)CNCCCCN)[C@@H](C)c1ccccc1)[C@@H](C)c1ccccc1)[C@@H](C)c1ccccc1 [Peptoid 20] | 8.2 µM | 33.9 µM | 106.7 ± 3.5% |  |  | 6.3 µM (≈ 12.4 µg/mL) | 1.6 µM (≈ 3.16 µg/mL)
13 | C[C@@H](c1ccccc1)N(CC(N)=O)C(=O)CN(C(=O)CN(CCCCN)C(=O)CN(C(=O)CN(C(=O)CN(CCCCN)C(=O)CN(CCc1c[nH]c2ccccc12)C(=O)CN(CCc1c[nH]c2ccccc12)C(=O)CN(CCCCN)C(=O)CN(CCc1c[nH]c2ccccc12)C(=O)CN(CCc1c[nH]c2ccccc12)C(=O)CNCCCCN)[C@@H](C)c1ccccc1)[C@@H](C)c1ccccc1)[C@@H](C)c1ccccc1 [Peptoid 21] | 23.2 µM | 64.9 µM | 83.7 ± 2.0% |  |  | 6.3 µM (≈ 12.4 µg/mL) | 1.6 µM (≈ 3.16 µg/mL)
14 | C[C@@H](c1ccccc1)N(CC(=O)N(CCc1c[nH]c2ccccc12)CC(=O)N(CCCCN)CC(=O)N(CC(=O)N(CCc1c[nH]c2ccccc12)CC(=O)N(CCCCN)CC(=O)N(CC(=O)N(CCc1c[nH]c2ccccc12)CC(=O)N(CCCCN)CC(=O)N(CC(=O)N(CCc1c[nH]c2ccccc12)CC(N)=O)[C@@H](C)c1ccccc1)[C@@H](C)c1ccccc1)[C@@H](C)c1ccccc1)C(=O)CNCCCCN [Peptoid 22] (H-[Nlys][Nspe][Gly(N(CH2)2(3-indolyl))][Nlys][Nspe][Gly(N(CH2)2(3-indolyl))][Nlys][Nspe][Gly(N(CH2)2(3-indolyl))][Nlys][Nspe][Gly(N(CH2)2(3-indolyl))]-NH2) | 6.9 µM | 19.4 µM | 108.6 ± 1.1% |  |  | 12.5 µM (≈ 24.7 µg/mL) | 1.6 µM (≈ 3.16 µg/mL)
